# Data from patent US20210052616A1, “ANTHRACYCLINE ENCAPSULATED WITH A POLYSACCHARIDE FOR USE IN THE TREATMENT OF TUMOURS” (NANOVELOS S.A, priority 2018, published 2021).
# “Also recorded” adds a separate entry of the source.
# Key:
# A2780 = experiment: MTT cytotoxicity test, A2780; format: cell-based; details: 24 h
# From the text: (§1) In this test, […] present in the cells converts the soluble tetrazolium salt (3-4,5-dimethylthiazol-2-yl)-2,5-diphenyltetrazolium bromide) into a reduced form. The reaction yields water-insoluble purple crystalline formazan. The number of crystals formed depends on the enzyme activity so that it is directly proportional to the number of viable cells in the sample. Spectrophotometric measurement requires the use of an organic solvent to dissolve the crystals obtained (isopropanol). The change in colour intensity is measured by spectrophotometry at 570 nm wavelength. The test was performed for a number of dilutions (9) of nanoparticle solutions containing the tested anthracycline. The baseline concentration of nanoparticles for MTT tests was 2.5 mg of nanoparticles/ml. […] The study was also performed for drug-free nanoparticles (the carrier itself was obtained similarly to the nanoparticles with the drug). Cells not exposed to toxic substances were used as a control for toxicity studies.
# (§2) After reaching 85-90% confluence, the cells were trypsinised using a 0.25% trypsin solution. The cells were then centrifuged (1200 rpm, 5 min.) and suspended in a culture medium suitable for a particular cell line. […] The cells were plated at a concentration of 1000 cells/100 μl of medium per culture well (96-well plates). The prepared plates were incubated (37° C./5% CO2/22 h to 26 h). Subsequently, the culture medium was replaced with a fresh one (100 μl) containing the appropriate concentration of the tested nanoparticles and set aside for 24 h (37° C./5% CO2). After the lapse of the test time, the medium was removed and replaced with 50 μl of an MTT reagent solution at a concentration of 1 mg/ml. The plate was incubated for 2 hours (37° C./5% CO2). Subsequently, the MTT solution was removed, and 100 μl of isopropanol was added. […] The mean value of absorbance read OD570 of the cells not exposed to a toxic agent (control) should be above 0.7 [see literature item 206].
# (§3) A decrease in the number of viable cells causes a decrease in metabolic activity in the sample. This reduction directly correlates with the amount of blue and purple formazan formed, monitored basing on the optical density at 570 nm. The following equation (C.1) is used to calculate viability reduction compared to control:
# (§4) where: • OD570e is the mean value of the measured absorbance of the test samples; • OD570b is the mean value of the measured absorbance of the control.
# (§5) The results obtained were statistically analysed using the Dixon Q test.
# A549 = experiment: MTT cytotoxicity test, A549; format: cell-based; details: 24 h
# From the text: as §1, §2, §3, §4, §5
# ACHN = experiment: MTT cytotoxicity test, ACHN; format: cell-based; details: 24 h
# From the text: as §1, §2, §3, §4, §5
# COLO 205 = experiment: MTT cytotoxicity test, COLO 205; format: cell-based; details: 24 h
# From the text: as §1, §2, §3, §4, §5
# internal organs [1] = experiment: Macroscopic and histopathological examination of internal organs at necropsy (Example 3); format: in vivo, mice
# mice = experiment: Survival of mice during treatment (Example 3); format: in vivo; details: EPI 15 mg/kg bw; NPs-EPI 3.75 and […] bw, i.v. every second day
# OVCAR3 line cells = experiment: Anti-tumour efficacy, tumour volume, OVCAR3 xenograft, 10 mg/kg bw every 3 days (Example 4); format: in vivo, mice
# From the text: (§6) Following Example 3, mice were obtained constituting an ovarian tumour test model, which were divided into 3 groups.
# [2] = 10 mg/kg bw every 3 days, following 3 administrations
# From the text: as §6
# internal organs [3] = details: microscopic images, dose of 10 mg/kg bw
# From the text: as §6
# [4] = to limit side effects; cited from earlier work
# [5] = A2780, 1.25E+04 ng/ml NPs (pure drug equimolar)
# [6] = A2780, 1.25E+05 ng/ml NPs (pure drug equimolar)
# [7] = A2780, 1.25E+06 ng/ml NPs (pure drug equimolar)
# [8] = A2780, 2.50E+04 ng/ml NPs (pure drug equimolar)
# [9] = A2780, 2.50E+05 ng/ml NPs (pure drug equimolar)
# [10] = A2780, 2.50E+06 ng/ml NPs (pure drug equimolar)
# [11] = A2780, 5.00E+03 ng/ml NPs (pure drug equimolar)
# [12] = A2780, 5.00E+04 ng/ml NPs (pure drug equimolar)
# [13] = A2780, 5.00E+05 ng/ml NPs (pure drug equimolar)
# [14] = A549, 1.25E+04 ng/ml NPs (pure drug equimolar)
# [15] = A549, 1.25E+05 ng/ml NPs (pure drug equimolar)
# [16] = A549, 1.25E+06 ng/ml NPs (pure drug equimolar)
# [17] = A549, 2.50E+04 ng/ml NPs (pure drug equimolar)
# [18] = A549, 2.50E+05 ng/ml NPs (pure drug equimolar)
# [19] = A549, 2.50E+06 ng/ml NPs (pure drug equimolar)
# [20] = A549, 5.00E+04 ng/ml NPs (pure drug equimolar)
# [21] = 1.25E+04 ng/ml NPs (pure drug equimolar)
# [22] = 1.25E+05 ng/ml NPs (pure drug equimolar)
# [23] = 1.25E+06 ng/ml NPs (pure drug equimolar)
# [24] = 2.50E+04 ng/ml NPs (pure drug equimolar)
# [25] = 2.50E+05 ng/ml NPs (pure drug equimolar)
# [26] = 5.00E+04 ng/ml NPs (pure drug equimolar)
# [27] = 5.00E+05 ng/ml NPs (pure drug equimolar)
# [28] = Colo205, 1.25E+04 ng/ml NPs (pure drug equimolar)
# [29] = Colo205, 1.25E+05 ng/ml NPs (pure drug equimolar)
# [30] = Colo205, 1.25E+06 ng/ml NPs (pure drug equimolar)
# [31] = Colo205, 2.50E+04 ng/ml NPs (pure drug equimolar)
# [32] = Colo205, 2.50E+05 ng/ml NPs (pure drug equimolar)
# [33] = Colo205, 2.50E+06 ng/ml NPs (pure drug equimolar)
# [34] = Colo205, 5.00E+03 ng/ml NPs (pure drug equimolar)
# [35] = Colo205, 5.00E+04 ng/ml NPs (pure drug equimolar)
# [36] = Colo205, 5.00E+05 ng/ml NPs (pure drug equimolar)
# [37] = 10 mg/kg bw every 3 days, group average
compound,measurement,setting,value
"COc1cccc2c1C(=O)c1c(O)c3c(c(O)c1C2=O)C[C@@](O)(C(=O)CO)C[C@@H]3O[C@H]1C[C@H](N)[C@@H](O)[C@H](C)O1 [Epi, epirubicin]",Average viability,A2780; [5],90.784%
same,Average viability,A2780; [6],69.996%
same,Average viability,A2780; [7],14.869%
same,Average viability,A2780; [8],89.24%
same,Average viability,A2780; [9],58.252%
same,Average viability,A2780; [10],3.102%
same,Average viability,A2780; [11],95.203%
same,Average viability,A2780; [12],83.629%
same,Average viability,A2780; [13],41.752%
same,Average viability,A549; [14],95.631%
same,Average viability,A549; [15],83.913%
same,Average viability,A549; [16],29.508%
same,Average viability,A549; [17],88.608%
same,Average viability,A549; [18],75.153%
same,Average viability,A549; [19],23.423%
same,Average viability,A549; [20],74.693%
same,Average viability,ACHN; [21],65.301%
same,Average viability,ACHN; [22],63.237%
same,Average viability,ACHN; [23],46.66%
same,Average viability,ACHN; [24],63.713%
same,Average viability,ACHN; [25],60.112%
same,Average viability,ACHN; 2.50E+06 ng/ml NPs (pure drug equimolar),32.352%
same,Average viability,ACHN; 5.00E+03 ng/ml NPs (pure drug equimolar),81.178%
same,Average viability,ACHN; [26],59.828%
same,Average viability,ACHN; [27],50.916%
same,Average viability,COLO 205; [28],63.431%
same,Average viability,COLO 205; [29],55.748%
same,Average viability,COLO 205; [30],5.063%
same,Average viability,COLO 205; [31],66.212%
same,Average viability,COLO 205; [32],49.549%
same,Average viability,COLO 205; [33],2.239%
same,Average viability,COLO 205; [34],83.936%
same,Average viability,COLO 205; [35],61.427%
same,Average viability,COLO 205; [36],23.946%
same,inflammation and changes of liver and spleen compared to the control group,internal organs [1]; OVCAR3 mice,severe inflammation and changes in the structure of the liver
same,Macroscopic evaluation of internal organs: Adrenal glands,"internal organs [1]; mouse #5, 15 mg/kg bw",No visible changes
same,Macroscopic evaluation of internal organs: Bladder,"internal organs [1]; mouse #5, 15 mg/kg bw",No visible changes
same,Macroscopic evaluation of internal organs: Brain,"internal organs [1]; mouse #5, 15 mg/kg bw",No visible changes
same,Macroscopic evaluation of internal organs: Heart,"internal organs [1]; mouse #5, 15 mg/kg bw",No visible changes
same,Macroscopic evaluation of internal organs: Left kidney,"internal organs [1]; mouse #5, 15 mg/kg bw",Consistency softer than normal
same,Macroscopic evaluation of internal organs: Liver,"internal organs [1]; mouse #5, 15 mg/kg bw","consistency softer than normal, blood vessels; also recorded: Liver surface colour dark cherry to brown,"
same,Macroscopic evaluation of internal organs: Lung,"internal organs [1]; mouse #5, 15 mg/kg bw",No visible changes
same,Macroscopic evaluation of internal organs: Pancreas,"internal organs [1]; mouse #5, 15 mg/kg bw",No visible changes
same,Macroscopic evaluation of internal organs: Reproductive organs,"internal organs [1]; mouse #5, 15 mg/kg bw",No visible changes
same,Macroscopic evaluation of internal organs: Right kidney,"internal organs [1]; mouse #5, 15 mg/kg bw",Consistency softer than normal
same,Macroscopic evaluation of internal organs: Spleen,"internal organs [1]; mouse #5, 15 mg/kg bw","1.6 cm × 0.4 cm × 0.1 cm in size, and slightly smaller, dark brown in colour"
same,Macroscopic evaluation of internal organs: Stomach,"internal organs [1]; mouse #5, 15 mg/kg bw",No visible changes
same,Macroscopic evaluation of internal organs: Thymus,"internal organs [1]; mouse #5, 15 mg/kg bw",No visible changes
same,External appearance of the mouse: skin thick,"internal organs [1]; mouse #5, EPI/OVCAR3 group, 15 mg/kg bw",0.21 mm
same,External appearance of the mouse,"internal organs [1]; mouse #5, EPI/OVCAR3 group, 15 mg/kg bw, 15 mg/kg","Anal area dirty with faeces, mouse; also recorded: cachectic"
same,death or survival of the mice during treatment,mice,resulted in the death of the mice
same,Average tumour volume (mm^3) Before necropsy,"OVCAR3 line cells; 10 mg/kg bw every 3 days (group K), after 3 administrations",124.45 ± 57.05 mm^3
same,Average tumour volume (mm^3) Before 1st administration,OVCAR3 line cells; [37],143.56 ± 9.22 mm^3
same,Average tumour volume (mm^3) Before 2nd administration,OVCAR3 line cells; [37],148.77 ± 41.82 mm^3
same,Average tumour volume (mm^3) Before 3rd administration,OVCAR3 line cells; [37],131.00 ± 42.96 mm^3
same,average increase of tumour volume,"OVCAR3 line cells; 10 mg/kg bw, after the first dose",3.63%
same,average decrease of body weight,[2],22.55%
same,Appearance of the organ: Tumour,internal organs [3],"anaplastic lesions, moderate tumour necrosis"
same,Appearance of the organ: Liver,internal organs [3]; 10 mg/kg,"Hyperaemia, features of hepatocyte; also recorded: feathery degeneration, focal necrosis"
same,Appearance of the organ: Reproductive organs,internal organs [3]; 10 mg/kg,"Severe lesions, endometrial hypertrophy,; also recorded: cystic lesions, the growth of Leydig cells"
"COc1cccc2c1C(=O)c1c(O)c3c(c(O)c1C2=O)C[C@@](O)(C(C)=O)C[C@@H]3O[C@H]1C[C@H](N)[C@H](O)[C@H](C)O1 [Dau, daunorubicin]",Average viability,A2780; [5],0.540%
same,Average viability,A2780; [6],18.312%
same,Average viability,A2780; [7],60.422%
same,Average viability,A2780; [8],3.689%
same,Average viability,A2780; [9],35.542%
same,Average viability,A2780; [10],54.259%
same,Average viability,A2780; [11],0.295%
same,Average viability,A2780; [12],11.600%
same,Average viability,A2780; [13],60.621%
same,Average viability,A549; [14],57.00%
same,Average viability,A549; [15],49.55%
same,Average viability,A549; [16],0.53%
same,Average viability,A549; [17],55.31%
same,Average viability,A549; [18],52.82%
same,Average viability,A549; [19],65.72%
same,Average viability,"A549; A549, 5.00E+03 ng/ml NPs (pure drug equimolar)",65.72%
same,Average viability,A549; [20],50.80%
same,Average viability,"A549; A549, 5.00E+05 ng/ml NPs (pure drug equimolar)",0.60%
same,Average viability,ACHN; [21],43.86%
same,Average viability,ACHN; [22],2.75%
same,Average viability,ACHN; [23],5.35%
same,Average viability,ACHN; [24],1.60%
same,Average viability,ACHN; [25],2.24%
same,Average viability,ACHN; [26],2.88%
same,Average viability,ACHN; [27],3.02%
same,Average viability,COLO 205; [28],34.20%
same,Average viability,COLO 205; [29],3.75%
same,Average viability,COLO 205; [30],5.07%
same,Average viability,COLO 205; [31],19.17%
same,Average viability,COLO 205; [32],3.47%
same,Average viability,COLO 205; [33],30.89%
same,Average viability,COLO 205; [34],30.89%
same,Average viability,COLO 205; [35],4.46%
same,Average viability,COLO 205; [36],2.93%
same,maximum recommended cumulative dose,[4],500 mg/m^2
